Measured values: patent US20040014721A1, “Method for using tethered bis(polyhydroxyphenyls) and O-alkyl derivatives thereof in treating inflammatory conditions of the central nervous system” (Oklahoma Medical Research Foundation, priority 2002, published 2004)
Entries after “also recorded” stand apart in the source; their conditions may differ.

What was measured:
[1] = system: prostaglandin E2 (PGE2) release in TNFα-stimulated EOC-20 cells; assay: PGE2 release in TNFα-stimulated EOC-20 cells; type: cell-based, mouse; conditions: submicromolar concentrations
Text: Prostaglandin E2, a product of the cyclooxygenation of arachidonic acid released from membrane phospholipids, plays major roles in regulating brain injury and inflammation. Although prostaglandin E2 has frequently been considered as a possible inducer of brain damage and degeneration, it may exert beneficial effects in the CNS. Indeed, in spite of its classic role as a pro-inflammatory molecule, several recent in vitro observations indicate that prostaglandin E2 can inhibit microglial activation.

LnCAP Production of PSA = assay: LnCAP production of PSA (ELISA); type: cell-based; conditions: Homo sapiens, LNCaP, 24 h
Protocol: LnCAP prostate cancer cells were be cultured according to established methods (Horoszewicz et al., 1983). These cells product prostate-specific antigen (PSA), a serine protease that predicts metastatic potential ([…] et al., 2000). […] Each drug was tested in triplicate at each concentration. Medium was removed and tested for PSA concentration using a commercially available enzyme-linked immunosorbent assay (ELISA). Viability was determined in the adherent cells using the MTT assay.

G93A-SOD1 mice = assay: Immunochemistry of lumbar spinal cord of G93A-SOD1 mice on oral NDGA (GFAP, F4/80); type: in vivo, mouse
Protocol: Mice were anesthetized with pentobarbital and perfused transcardially with 4% paraformaldehyde in phosphate buffer. The lumbar region (L1-L5) was processed for paraffin embedding. Immunochemistry was performed on […] sections, using commercially available antibodies, and tissue sections were routinely counterstained with hematoxylin and eosin. Polyclonal anti-SOD1 IgG was purchased from Chemicon (Temecula, Calif.). Polyclonal anti-5LOX IgG was purchased from Cayman Chemical (San Diego, Calif.). Monoclonal anti-5LOX was obtained from Transduction Laboratories (Lexington, Ky.). Polyclonal antibody against glial fibrillary acidic protein (GFAP) was purchased from Research Diagnostics International (Flanders, N.J.). FITC-conjugated anti-F4/80, which recognizes a microglial cell surface antigen (Drachman et al., 2002), was purchased from Serotec (Raleigh, N.C.). Positive control for 5LOX Western blots was SL-29 fibroblast lysate (Transduction Laboratories, provided with the antibody). Electrophoresis was performed on 4-20% gradient polyacrylamide gels, and bands were visualized with chemiluminescence detection reagents (Amersham).
Microglial proliferation is another neuroinflammatory feature inherent to motoneuron disease in the G93A-SOD1 mouse (Drachman et al., 2002). […]

Aβ-induced neurotoxicity = assay: Rat model of Aβ-induced neurotoxicity (ICV Aβ40 + Aβ42 + ApoE4), radial eight-arm maze; type: in vivo, Sprague-Dawley male rats; conditions: 0.25% NDGA diet
Text: In this model, rats are infused intracerebroventricularly (ICV) with Aβ adsorbed to an apo-lipoprotein carrier. Thus, to determine whether dicatechol (e.g., microglial inhibitor nordihydroguaiaretic acid) blocks Aβ-induced neurotoxicity the Frautschy model was used. […] Each group consisted of six rats fed either a control or an NDGA supplemented diet (Table VII).
Rats were trained on a radial eight-arm maze as described previously. After they achieved 0-2 error level, they underwent surgery for implantation of the cannulae and osmotic pumps. Twenty-four hours after surgery, they were started on the dietary treatment.
Time and error scores from six trials for each experimental group were subjected to analysis of variance (ANOVA). Tucky-Kramer test for multiple comparisons was used as a posthoc test. Performance in the memory task was analyzed separately over all six trials.

rats = conditions: rat, in vivo, po; cited from earlier work

Compound: C[C@H](Cc1ccc(O)c(O)c1)[C@@H](C)Cc1ccc(O)c(O)c1 [NDGA, 1,4-bis (3,4-Dihydroxyphenyl)-2,3-dimethylbutane]
- inhibition of prostaglandin E2 (PGE2) release [1]: effective at submicromolar concentrations
- inhibition of prostaglandin E2 (PGE2) release ([1]; listed as NGDA): effectively inhibits prostaglandin E2 (PGE2)
- IC50 (LnCAP Production of PSA): 15 µM
- F4/80-positive microglia, lumbar spinal cord (G93A-SOD1 mice; 120 D of age): diminished the number of F4/80-positive microglia
- astrogliosis (GFAP-positive astrocytes), lumbar spinal cord (G93A-SOD1 mice; 120 D old mice): significantly diminished astrogliosis; also recorded: significantly decreased the number of GFAP-positive astrocytes
- working memory errors and latency (Aβ-induced neurotoxicity; day 25): significant decrease in the number of working memory errors and latency
- reference errors (Aβ-induced neurotoxicity; day 25 and day 30, not significant): suppressed reference errors
- LD50 (rats): more than 2000 mg/kg
